From patent US20200002275A1, “Dimethyl Farnesyl Amine Oxide And Its Use As Surfactant Or Wetting Agent” (Clariant International Ltd., priority 2017, published 2020) come the findings set out here.

Assay type in all cases: physicochemical
Series [1] is described as follows: Determination of wetting ability by immersion (modified EN 1772:2000). The settings on record: 0.1 wt.-% aqueous solution, room temperature, raw cotton disc, mean of five measurements. The method, then: This measurement was modified based on the European Standard EN 1772:2000. A 500 mL 0.1 wt.-% aqueous solution of test surfactant was prepared. The test solution was kept at room temperature to stabilize for 1 h. A raw cotton disc (30 mm diameter, wfk Testgewebe GmbH), was clamped in a gripper and immersed in the solution. Stopwatch was started at the moment when the lower part of the disc touched the solution and stopped when the disc began to sink of its own accord. The arithmetic mean of five measurements was calculated and recorded as the wetting time.

Series [2] is described as follows: Dynamic surface tension measurements, maximum bubble pressure method. The settings on record: deionized water, 25° C. On the procedure: These measurements were conducted with the Krüss PocketDyne BP2100, which utilized the maximum bubble pressure method of surface tension analysis. Surface tension profiles of dimethyl farnesyl amine oxide and diethyl farnesyl amine oxide at the desired concentration were measured in deionized water at 25° C.
The results in table 2 are given in mN/m.

Series [3] is described as follows: Solubility in water (observation).
The nature of series [4]: CMC (critical micelle concentration) and surface tension measurements, Du Noüy ring method. The settings on record: 25° C., Krüss Tensiometer K 100 (Ring). The method, then:
CMC (critical micelle concentration) and surface tension measurements These measurements were conducted with the Krüss Tensiometer K 100 (Ring), which utilized the Du Noüy ring method. Surface tension profiles of the amine oxides were measured at 25° C.

A short description of series [5]: Measurement of foam creation and decay on a SITA foam tester. The settings on record: 0.01 g/L surfactant solution, 1200 rpm, room temperature, 5 minutes foam creation; listed as dimethyl farnesyl amine oxide. On the procedure:
This method monitors foam generation and decay at room temperature over time. A surfactant solution of 0.01 g/L was pumped into the SITA foam tester R2000. The speed of the stirring plate was set to 1200 rpm. Foam creation was recorded in a 10 second interval for 5 minutes and decay was recorded in a 30 second interval for 15 minutes at room temperature.

`CC[N+]([O-])(CC)CC=C(C)CCC=C(C)CCC=C(C)C` [Diethyl, Diethyl Farnesyl Amine Oxide, reference compound]: the Wetting time in series [1] amounted to 54 s. In addition, in series [2] (0.3 g/L), the “Surface tension at surface age 20 ms” value came to 66.7 mN/m, the “Surface tension at surface age 50 ms” value is 65.6 mN/m, the “Surface tension at surface age 100 ms” value is reported as 64.3 mN/m and the “Surface tension at surface age 200 ms” value is listed as 65.7 mN/m. The “Surface tension at surface age 400 ms” value in series [2] (0.3 g/L) is on record as 65.0 mN/m. Moreover, in series [2] (1.0 g/L), the “Surface tension at surface age 20 ms” value was determined as 60.0 mN/m, the “Surface tension at surface age 50 ms” value was 62.0 mN/m, the “Surface tension at surface age 100 ms” value is listed as 57.3 mN/m and the “Surface tension at surface age 200 ms” value worked out at 56.0 mN/m. For the same compound, the “Surface tension at surface age 400 ms” value in series [2] (1.0 g/L) amounted to 54.9 mN/m. In series [2] (3.0 g/L), the “Surface tension at surface age 20 ms” value was 55.2 mN/m, the “Surface tension at surface age 50 ms” value is reported as 52.7 mN/m, the “Surface tension at surface age 100 ms” value is given as 51.8 mN/m and the “Surface tension at surface age 200 ms” value is recorded as 50.6 mN/m. Besides, the “Surface tension at surface age 400 ms” value in series [2] (3.0 g/L) is recorded as 51.6 mN/m. Also, the solubility in water result in series [3] is reported as “very poor”.

As for `CC(C)=CCC/C(C)=C/CC/C(C)=C/C[N+](C)(C)[O-]` [Dimethyl, Dimethyl Farnesyl Amine Oxide], in series [4], the “C20: concentration of surfactant to reduce the surface tension of water by 20 mN/m” value is 0.018 g/L, the CMC was found to be 1.09 g/L and the Surface tension is listed as 28.7 mN/m. The compound further registered a Wetting time in series [1] of 28 s. Further, the Foam ability entry in series [5] was “no foam at all”. In series [2] (0.3 g/L), the “Surface tension at surface age 20 ms” value amounted to 59.9 mN/m, the “Surface tension at surface age 50 ms” value is 56.9 mN/m, the “Surface tension at surface age 100 ms” value is 52.9 mN/m and the “Surface tension at surface age 200 ms” value is 51.5 mN/m. Besides, the “Surface tension at surface age 400 ms” value in series [2] (0.3 g/L) worked out at 49.5 mN/m. Besides, in series [2] (1.0 g/L), the “Surface tension at surface age 20 ms” value is recorded as 43.8 mN/m, the “Surface tension at surface age 50 ms” value is recorded as 40.7 mN/m, the “Surface tension at surface age 100 ms” value was 39.3 mN/m and the “Surface tension at surface age 200 ms” value is 38.1 mN/m. Further, the “Surface tension at surface age 400 ms” value in series [2] (1.0 g/L) was found to be 36.9 mN/m. Further, in series [2] (3.0 g/L), the “Surface tension at surface age 20 ms” value was 35.3 mN/m, the “Surface tension at surface age 50 ms” value is 33.2 mN/m, the “Surface tension at surface age 100 ms” value was 32.5 mN/m and the “Surface tension at surface age 200 ms” value stood at 32.1 mN/m. In series [2] (3.0 g/L), the “Surface tension at surface age 400 ms” value is recorded as 31.5 mN/m.
